10 compounds from ChEMBL document CHEMBL1201862, “PubChem BioAssay data set” (2004) can be followed below.

Assay in all cases: NCI anticancer screen, dose series, 48 h
Assay [1] deals with HCT-15.
The test system of assay [2] is IGROV-1.
The subject of assay [3] is OVCAR-3.
Assay [4] relates to TK-10.
For assay [5], the system named is RXF 393.
In assay [6] the test system is K562.
Assay [7] has as its system SNB-19.
The test system of assay [8] is CAKI-1.
The subject of assay [9] is HCC 2998.
For assay [10], the system named is M14.
Assay [11] concerns NCI-H522.
Assay [12] deals with UO-31.
In assay [13] the test system is SF-268.
Assay [14] relates to SK-MEL-2.
Assay [15] relates to SF-295.
The test system of assay [16] is OVCAR-8.
Assay [17] concerns MDA-N.
Assay [18] concerns MCF7.
The test system of assay [19] is SNB-75.
Assay [20] deals with MOLT-4.

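These data come from cells grown in 96-well plates and exposed to compound for 48 hours at five concentrations. The concentration for 50% growth inhibition is given as GI50.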 Active and inactive are the calls of the source. Rule as the data show it: active = GI50 up to about 1.1 µM and inactive = higher.

In the case of `O=C(Nc1cccc2cnccc12)c1cc2c(cc1Cl)Sc1nccn1S2(=O)=O`, the GI50 was 8.71 µM in [1]; 15.8 µM (inactive) in [2]; 19.9 µM (inactive) in assay [3]; 24.4 µM (inactive) in assay [4]; 8.2 µM (inactive) in assay [5]; 16.2 µM (inactive) in assay [6]. Further, the GI50 in assay [7] is 17.9 µM (inactive); in assay [8] it was 25.8 µM (inactive); in assay [9], 15.7 µM (inactive); in [10], > 100 µM (inactive); in assay [11] it was 13.1 µM (inactive); in assay [12], 18.6 µM (inactive). The GI50 in assay [13] is 16.2 µM (inactive); in assay [14], 13.5 µM (inactive); in [15] it was 15.4 µM (inactive); in [16], 10.3 µM (inactive); in [17], 7.01 µM (inactive); in assay [18] it was 5.36 µM (inactive). Further, the GI50 in assay [19] is 15.5 µM (inactive); in [20], 12.9 µM (inactive).

On to `CN(C)c1ccc(/C=c2\c3cc([N+](=O)[O-])ccc3n3c2cc(-c2ccccc2)[n+]3C)cc1`, for which the GI50 in [1] was 15.5 µM; in [2] it was 0.964 µM (active); in assay [3], 1.46 µM (inactive); in [4] it was 2.64 µM (inactive); in [5], 1.06 µM (active); in assay [6] it was 0.265 µM (active). Also, the GI50 in assay [7] was 0.925 µM (active); in assay [8], 7.66 µM (inactive); in [9], 2.28 µM (inactive); in assay [10], 1 µM (active); in [11], 0.497 µM (active); in [12], 7.41 µM (inactive). Also, the GI50 in assay [13] is 0.923 µM (active); in assay [14], 0.521 µM (active); in assay [15], 2.32 µM (inactive); in assay [16], 1.45 µM (inactive); in [17], 0.437 µM (active); in assay [18] it was 0.791 µM (active). Also, the values for the GI50 in assay [19] and in assay [20] were 1.07 µM (active) and 1.75 µM (inactive), respectively.

On to `C[C@]12OC[C@H](c3ccccc3)N1C(=O)C1[C@H]2CC12SCCS2` (stereo not given in full), for which the GI50 is more than 100 µM in assay [1]; > 100 µM (inactive) in assay [2]; > 100 µM (inactive) in assay [3]; > 100 µM (inactive) in assay [4]; > 100 µM (inactive) in assay [5]; > 100 µM (inactive) in assay [6]. Further, the GI50 in [7], in assay [8], in assay [9], in assay [10], in assay [11] and in assay [12] was > 100 µM (inactive) throughout. The GI50 in assay [13], in [14], in assay [15], in assay [16], in assay [17] and in assay [18] was > 100 µM (inactive) throughout. The GI50 in assay [19] and in assay [20] was > 100 µM (inactive) throughout.

Consider `Clc1ccc(C2C3COc4ccccc4C3=NN2c2ccccc2)cc1` (stereo not given), for which the GI50 in [1] is 17.9 µM; in assay [2], > 69 µM (inactive); in assay [3] it was > 57.3 µM (inactive); in [4], > 100 µM (inactive); in assay [5], 95.5 µM (inactive); in assay [6], 3.19 µM (inactive). For the same compound, the GI50 in [7] is > 46.9 µM (inactive); in assay [8], 58.9 µM (inactive); in assay [9], > 100 µM (inactive); in assay [10], 96.8 µM (inactive); in [11], 17.8 µM (inactive); in assay [12] it was > 100 µM (inactive). For the same compound, the GI50 in assay [13] was 44.7 µM (inactive); in assay [14], > 75.3 µM (inactive); in [15], > 100 µM (inactive); in assay [16], > 69.5 µM (inactive); in assay [17], 22.8 µM (inactive); in assay [18], 3.84 µM (inactive). Besides, the GI50 was > 70.3 µM (inactive) in [19] and 8.73 µM (inactive) in [20].

For `CN(C)CCNc1nc2ccccc2c2c1C(=O)c1ccccc1-2`, the GI50 is 0.15 µM in assay [1]; 0.0942 µM (active) in assay [2]; 0.556 µM (active) in assay [3]; 0.513 µM (active) in [4]; 0.18 µM (active) in assay [5]; 0.163 µM (active) in [6]. The GI50 in [7] was 0.47 µM (active); in assay [8], 0.124 µM (active); in assay [9], 0.134 µM (active); in assay [10], 0.316 µM (active); in assay [11] it was 0.211 µM (active); in assay [12] it was 0.15 µM (active). Also, the GI50 in [13] is 0.279 µM (active); in assay [14], 0.368 µM (active); in assay [15], 0.225 µM (active); in assay [16], 0.195 µM (active); in assay [17] it was 0.318 µM (active); in assay [18], 0.0508 µM (active). The values for the GI50 in [19] and in assay [20] were 0.564 µM (active) and 0.01 µM (active), respectively.

For the compound `COc1ccccc1C(=O)c1c(N2CCCCC2)c(=O)c1=O`, the GI50 is more than 100 µM in assay [1]; > 100 µM (inactive) in assay [2]; > 100 µM (inactive) in [3]; > 100 µM (inactive) in assay [4]; > 100 µM (inactive) in assay [5]; > 100 µM (inactive) in assay [6]. Further, the GI50 was > 100 µM (inactive) in [7]; > 100 µM (inactive) in [8]; > 100 µM (inactive) in assay [9]; > 100 µM (inactive) in assay [10]; 59.3 µM (inactive) in [11]; > 100 µM (inactive) in [12]. Also, the GI50 in assay [13], in [14], in [15], in [16], in [17] and in assay [18] was > 100 µM (inactive) each time. Moreover, the GI50 in assay [19] and in [20] was > 100 µM (inactive) each time.

Regarding `CC[C@]1(O)CC(OC2CC(N(C)C)C(O)C(C)O2)c2c(cc3c(c2O)C(=O)c2c(O)cccc2C3=O)[C@@H]1C(=O)OC` (stereo not given in full), the GI50 in [1] was 0.244 µM; in assay [2] it was 0.119 µM (active); in assay [3] it was 0.493 µM (active); in [4] it was 0.472 µM (active); in assay [5] it was 0.269 µM (active); in [6] it was 0.0733 µM (active). Besides, the GI50 in assay [7] is 0.328 µM (active); in [8], 0.0466 µM (active); in [9] it was 0.21 µM (active); in assay [10] it was 0.468 µM (active); in [11] it was 0.108 µM (active); in [12] it was 0.173 µM (active). The GI50 in assay [13] is 0.12 µM (active); in assay [14], 0.381 µM (active); in assay [15] it was 0.195 µM (active); in assay [16], 0.0743 µM (active); in assay [17] it was 0.384 µM (active); in [18] it was 0.292 µM (active). The results for the GI50 in assay [19] and in [20] were 0.201 µM (active) and 0.0405 µM (active), respectively.

Regarding `N#Cc1c(-c2ccccc2)cc(Nc2ccc(Cl)cc2)n2c1nc1ccccc12`, the GI50 was 3.37 µM in assay [1]; 1.36 µM (inactive) in [2]; 1.85 µM (inactive) in assay [3]; 4.45 µM (inactive) in assay [4]; 4.35 µM (inactive) in assay [5]; 1.49 µM (inactive) in assay [6]. Besides, the GI50 in [7] was 2.93 µM (inactive); in assay [8], 3.59 µM (inactive); in assay [9], 3.78 µM (inactive); in [10] it was 4.23 µM (inactive); in assay [11], 1.91 µM (inactive); in assay [12] it was 2.49 µM (inactive). Besides, the GI50 in assay [13] was 3.71 µM (inactive); in assay [14], 2.99 µM (inactive); in assay [15] it was 3.4 µM (inactive); in assay [16] it was 2.96 µM (inactive); in assay [17] it was 2.42 µM (inactive); in assay [18], 3.48 µM (inactive). The figures for the GI50 in [19] and in assay [20] were 5.47 µM (inactive) and 2.34 µM (inactive), respectively.

Regarding `C/C=C\C(CC(=O)NCC(=O)c1c[nH]c2ccccc12)CC(=O)OC` (stereo not given), the GI50 was more than 100 µM in [1]; > 100 µM (inactive) in assay [2]; > 100 µM (inactive) in [3]; > 100 µM (inactive) in assay [4]; > 100 µM (inactive) in assay [5]; > 100 µM (inactive) in assay [6]. The GI50 in [7], in assay [8], in [9], in assay [10], in assay [11] and in assay [12] was > 100 µM (inactive) in each case. Besides, the GI50 in assay [13], in assay [14], in [15], in assay [16], in assay [17] and in assay [18] was > 100 µM (inactive) throughout. Further, the GI50 in assay [19] and in assay [20] was > 100 µM (inactive) throughout.

As for `N#CC(c1ccccc1)N1CCCN(C(C#N)c2ccccc2)C1c1ccccc1O` (stereo not given), the GI50 in [1] was more than 100 µM; in assay [2] it was > 100 µM (inactive); in assay [3] it was 48.3 µM (inactive); in assay [4], > 100 µM (inactive); in assay [5], > 100 µM (inactive); in assay [6], > 100 µM (inactive). Besides, the GI50 in assay [7], in [8], in [9], in assay [10], in assay [11] and in assay [12] was > 100 µM (inactive) each time. Moreover, the GI50 in [13], in [14], in assay [15], in [16], in [17] and in [18] was > 100 µM (inactive) throughout. The GI50 in [19] was > 100 µM (inactive); in assay [20], 61.1 µM (inactive).
